The text below walks through data of patent publication US12629419B2, “Prevention or mitigation of T-cell engaging agent-related adverse effects” (Hoffmann-La Roche Inc., priority 2020, dated 2026).

One experiment concerns CD20+ B cells. Briefly: CD19-TCB-induced B cell depletion in humanized NSG mice. Type of experiment: in vivo. The settings on record: for CD19-TCB-induced B cell depletion in blood: co-treatment with 0.5 mg/kg CD19-TCB; for CD19-TCB-induced CD20+ B cell depletion in the spleen: 72 hrs (termination). The source says: FIG. 81. In vivo experiment timelines and dosing schedule.
To best reproduce the pharmacodynamic profile of ruxolitinib, dasatinib and sirolimus in the clinic and to verify whether the resulting exposure would be sufficient to prevent CD19-TCB-induced cytokine release, dasatinib and ruxolitinib were given per os twice per day, and sirolimus was given per os twice per day on day 1 and then once per day.
At 48 hrs and 72 hrs, blood was collected by tail-vein bleeding and the CD20+ B cell count was measured by flow cytometry (FIGS. 82A and B) to assess the effect of the different treatments on CD19-TCB-induced B cell depletion. […] Its half-life being around 6-7 hrs and dasatinib being given only twice per day, a lack of exposure could likely explain that CD19-TCB was partially active, resulting in B cell depletion. At experiment termination (72 hrs), spleens were collected and the B cell count was measured by flow-cytometry (FIG. 83). […] However, their inhibitory effect was stronger than methylprednisolone (FIG. 83).

In experiment [1] the test system is CD20-TCB-induced cytokine release. Briefly: CD20-TCB-induced cytokine release in non-tumor bearing humanized NSG mice (serum, Luminex). The settings on record: serum 4 hours and 24 hours after CD20-TCB; ruxolitinib 30 to 60 mg/kg. The format is in vivo. The method, then:
FIG. 95. In vivo experiment timelines and dosing schedule.
Different doses of mTOR, JAK and Src kinase inhibitors were tested to determine the optimal dose that reduces CD20-TCB-induced cytokine release while minimally interfering with B cell depletion. […] The doses of 30 and 60 mg/kg were tested for ruxolitinib and the doses of 10 and 50 mg/kg were tested for dasatinib. To reproduce the clinical route of administration, the different kinase inhibitors were given orally (p.o.) once or twice per day as depicted in FIG. 95. Mice were bled 4 hours and 24 hours after the treatment with CD20-TCB (FIG. 95) to collect serum for cytokine level measurements by Luminex. Additionally, blood was collected 48 hours and 72 hours (termination) post treatment with CD20-TCB to measure the percentage of CD19+ B cells among human CD45+ cells by flow cytometry (FIG. 95).

Setting [2] is: 48 hrs, p.o.: 6×30 mg/kg ruxolitinib, 4×5 mg/kg sirolimus, dexamethasone, methylprednisolone.
The mark [3] stands for this setting: 72 hrs, dasatinib 6×50 mg/kg p.o.

With `N#CC[C@H](C1CCCC1)n1cc(-c2ncnc3[nH]ccc23)cn1` [ruxolitinib, Ruxolitinib], the entries for the “CD19-TCB-induced B cell depletion in blood” value with CD20+ B cells (setting [2]) and with CD20+ B cells (setting [3]) were “slightly prevented” and “comparable to the effect dexamethasone”, respectively. Also, in the experiment with CD20+ B cells, the “CD19-TCB-induced CD20+ B cell depletion in the spleen” value is recorded as “only partially prevented”. Besides, in experiment [1], the “CD20-TCB-mediated cytokine release other than IL-2 and GM-CSF” value is recorded as “durably reduced”.

For `CO[C@H]1C[C@@H]2CC[C@@H](C)[C@@](O)(O2)C(=O)C(=O)N2CCCC[C@H]2C(=O)O[C@H]([C@H](C)C[C@@H]2CC[C@@H](O)[C@H](OC)C2)CC(=O)[C@H](C)/C=C(\C)[C@@H](O)[C@@H](OC)C(=O)[C@H](C)C[C@H](C)/C=C/C=C/C=C/1C` [sirolimus, Sirolimus], the “CD19-TCB-induced B cell depletion in blood” value with CD20+ B cells (setting [2]) is on record as “slightly prevented”; in the experiment with CD20+ B cells (setting [3]), “comparable to the effect dexamethasone”. Further, in the experiment on CD20+ B cells, the “CD19-TCB-induced CD20+ B cell depletion in the spleen” value was “only partially prevented”.
